Test results as given in US20200061062A1, “INHIBITORS OF HUMAN PHOSPHATIDYLINOSITOL 3-KINASE DELTA” (ICOS Corporation, priority 2000, published 2020).
“And” between values parts separate entries of the source, which are not always exact repeats. Equal values may be shown once. Read-outs that look alike come from different tables or passages of the source.

How the values were obtained:
[1] = biological target: T1, PI3Kγ (Homo sapiens, UniProt P48736); experiment: Biochemical assay of PI3K potency and selectivity using 20 μM ATP, Gamma
T1 construct: His tag (pFastbac HTb vector) (N); FLAG (N); made in house; host or cells: Sf21 insect cells (baculovirus)
Description: Recombinant baculoviruses containing the above clones were generated using manufacturer's recommended protocol (Life Technologies). Baculoviruses expressing His-tagged p110α, p110γ, or p110δ catalytic subunit and p85 subunit were coinfected into Sf21 insect cells. To enrich the heterodimeric enzyme complex, an excess amount of baculovirus expressing p85 subunit was infected, and the His-tagged p110 catalytic subunit complexed with p85 was purified on nickel affinity column. […] In an alternate approach, p101 can be cloned into baculovirus, to permit coexpression with its preferred binding partner p110γ. […]

[2] = biological target: T1, PI3Kγ; experiment: Biochemical assay using 200 μM ATP, Gamma
[3] = tested on: human neutrophils; experiment: Elastase exocytosis from neutrophils (fMLP-induced); format: cell-based; conditions: neutrophil (PMN) elastase release
Summary of the method: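 Human blood neutrophils (Ficoll-Hypaque) treated with compound or DMSO, then stimulated 90 min at 37 °C with 1 μM fMLP plus 0.01 mg/mL cytochalasin B, 1.0 μM NaN3 and 5 μg/mL L-methionine. Supernatant elastase read at 410 nm over 2 h on MeO-suc-AAPV-pNA, normalized to uninhibited; EC50 in μM.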

[4] = tested on: human neutrophils; experiment: fMLP-induced human neutrophil migration; format: cell-based; conditions: neutrophil (PMN) migration, read-out: Human PMN Migration (EC50)
Description: Neutrophils have the intrinsic capacity to migrate through tissues, and are one of the first cell types to arrive at the sites of inflammation or tissue injury. The effect of D-000 on neutrophil migration towards a concentration gradient of fMLP was measured. The day before the migration assays were performed, 6-well plates were coated with recombinant ICAM-1/Fc fusion protein (Van der Vieren et al., Immunity, 3:683-690 (1995)) (25 μg/mL in bicarbonate buffer, pH 9.3) and left overnight at 4° C. After washing, 1% agarose solution, in RPMI-1640 with 0.5% bovine serum albumin (BSA), was added to wells with or without an inhibitor, and plates were placed into a refrigerator before punching holes in the gelled agarose to create plaques (1 central hole surrounded by 6 peripheral ones per well).
Human neutrophils were obtained as described above, and resuspended in RPMI medium supplemented with 0.5% BSA at 5×10^6 cells/mL. After combining equal volumes of neutrophil suspension and medium (either with DMSO or a serial dilution of the test compound in DMSO), neutrophils were aliquoted into the peripheral holes, while the central hole received fMLP (5 μM). Plates were incubated at 37° C. in the presence of 5% CO2 for 4 hr, followed by termination of migration by the addition of 1% glutaraldehyde solution in D-PBS. After removing the agarose layer, wells were washed with distilled water and dried.
Analysis of neutrophil migration was conducted on a Nikon DIAPHOT® inverted microscope (1× objective) video workstation using the NIH 1.61 program. Using Microsoft Excel and Table Curve 4 (SSPS Inc., Chicago Ill.) programs, a migration index was obtained for each of the studied conditions. Migration index was defined as the area under a curve representing number of migrated neutrophils versus the net distance of migration per cell.
Using the methods described in Examples 3-5, above, compounds of the invention were tested for inhibitory activity and potency in assays of stimulated B and T cell proliferation, neutrophil (PMN) migration, and neutrophil (PMN) elastase release. In Table 4, the values shown are effective concentrations of the compound (EC50; μM). Where no value is given, no assay was performed.

[5] = tested on: Murine splenocytes (Balb/c); experiment: B cell proliferation in response to cell surface IgM stimulation; format: cell-based; conditions: Mus musculus, Splenocyte; stimulated B cell proliferation; read-out: Mouse BCR Stim (EC50)
Summary of the method: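 Balb/c splenocytes (2×10^5/well, 10% FBS/RPMI) preincubated 30-60 min with inhibitor, then stimulated with goat F(ab′)2 anti-mouse IgM μ-chain at 25 μg/mL final. Cultured 3 days at 37° C., [^3H]-thymidine pulsed for final 4 h; incorporation counted as CPM. Values are EC50 (μM).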

[6] = tested on: T cell proliferation; experiment: Stimulated T cell proliferation (Mouse TCE Stim, Table 4); format: cell-based; conditions: read-out: Mouse TCE Stim (EC50)
[7] = tested on: basophils; experiment: Basophil histamine release assay; format: cell-based, human
Description: Assessment of the effect of a compound of the invention on basophil function was tested using a conventional histamine release assay, generally in accordance with the method described in Miura et al., J Immunol, 162:4198-206 (1999). Briefly, enriched basophils were preincubated with test compounds at several concentrations from 0.1 nM to 1,000 nM, for 10 min at 37° C. Then, polyclonal goat antihuman IgE (0.1 μg/mL) or fMLP was added, and allowed to incubate for an additional 30 min. Histamine released into the supernatant was measured using an automated fluorometric technique. Two compounds were tested, shown below.

[8] = biological target: T2, PI3Kδ (Homo sapiens, UniProt O00329, S253N); experiment: Biochemical assay using 200 μM ATP, Delta;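 note: radiometric filter-binding assay: PI3Kδ transfers ³²P from γ-[³²P]ATP onto PIP2/PS liposomes, counted by scintillation, enzyme-only wells as positive control, no-enzyme wells as background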
[9] = biological target: T2, PI3Kδ; experiment: Biochemical assay of PI3K potency and selectivity using 20 μM ATP, Delta; parameters: His tag (pFastbac HTb vector) (N); FLAG; made in house; host or cells: Sf21 insect cells (baculovirus)
Summary of the method: (§1)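 Lipid-kinase radiometric assay with γ-[32P]ATP (20 μM ATP) on PIP2/PS liposomes in 20 mM HEPES pH 7.4; the 3× substrate mix held […] and 6 μM liposomes.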

[10] = biological target: T3, PI3Kα (Homo sapiens, UniProt P42336); experiment: Biochemical assay of PI3K potency and selectivity using 20 μM ATP, Alpha; conditions: for Alpha/Delta Ratio: ratio of IC50 values, > = hypothetical ratio with 100 μM substituted for the missing IC50; for remaining activity at 100 µM: read-out: percent activity remaining at 100 μM, 20 μM ATP, 100 μM compound did not inhibit by at least 50%
T3 construct: His tag (pFastbac HTb vector) (N); FLAG; made in house; host or cells: Sf21 insect cells (baculovirus)
Summary of the method: as §1

[11] = biological target: T4, PI3Kβ (Homo sapiens, UniProt P42338); experiment: Biochemical assay of PI3K potency and selectivity using 20 μM ATP, Beta; conditions: 20 μM ATP; for Beta/Delta Ratio: ratio of IC50 values, > = hypothetical ratio with 100 μM substituted for the missing IC50; for IC50: read-out: Beta IC50
T4 construct: His tag (pFastbac HTa vector) (N); FLAG (N); made in house; host or cells: Sf21 insect cells (baculovirus)
Summary of the method: as §1

[12] = biological target: T3, PI3Kα; experiment: Biochemical assay using 200 μM ATP, Alpha
[13] = biological target: T4, PI3Kβ; experiment: Biochemical assay using 200 μM ATP, Beta
[14] = tested on: rats; experiment: Six-day air pouch model, TNF challenge, leukocyte counts and neutrophil elastase in lavage fluid; format: in vivo, rat; conditions: 100 mg/kg orally, TNF 2.5 ng
Description: The six-day air pouch model is an in vivo inflammation model that histologically resembles a joint synovium. A lining of organized mononuclear cells and fibroblasts develops that closely resembles a synovial cavity. The model represents an “acute” model of a chronic disease (e.g., rheumatoid arthritis). This model allows for the in vivo evaluation of agents to block cellular influx into the air pouch under the influence of an inflammatory stimulus.
(§2) The test was performed as follows: on day zero, groups of rats were shaved and 10 ml of air was injected subcutaneously on the back of each, forming a pouch. On day three, 10 ml of air was reinjected. […] Six hours following dosing, the air pouches of both groups received 2.5 ng of TNF. Twelve hours following dosing, the pouches were washed with saline, and the resulting lavage fluid was analyzed for leukocyte counts and neutrophil elastase activity. In addition, blood was drawn to determine the levels of D-030 in circulation. […] Reductions in specific leukocyte counts were as follows: neutrophils (90%), eosinophils (66%), and lymphocytes (70%).

[15] = Levels of D-030 in circulation (air pouch test); format: in vivo; conditions: rat, blood, po; rats, 100 mg/kg in PEG 400 orally, twelve hours following dosing; read-out: Average compound in circulation
Description: as §2

[16] = tested on: mouse; experiment: Mouse air pouch, TNF-α challenge, elastase exocytosis in lavage; format: in vivo; conditions: 32 mg/kg in LABRAFIL one hour before and two hours after TNF-α, FIG. 9
[17] = tested on: osteoclasts; experiment: Osteoclast function, pit depths on dentine slices; format: cell-based, mouse; conditions: inhibitor 100 nM + osteopontin (OPN) 25 μg/mL, 72 hr; two experiments; OPN alone 10 ± 0.5 and 9 ± 0.4
Description: To analyze the effect of the PI3Kδ inhibitor D-000 on osteoclasts, mouse bone marrow cells were isolated and differentiated them to osteoclasts by treating the cells with Macrophage Colony Stimulating Factor^−1 (mCSF^−1) and Osteoprotegerin Ligand (OPGL) in serum-containing medium (αMEM with 10% heat-inactivated FBS; Sigma) for 3 days. On day four, when the osteoclasts had developed, the medium was removed and cells were harvested. The osteoclasts were plated on dentine slices at 10^5 cells/well in growth medium, i.e., αMEM containing 1% serum and 2% BSA with […] and 10 ng/mL mCSF-1. After 3 hr, the medium was changed to 1% serum and 1% BSA, with or without osteopontin (25 μg/mL) and the PI3K inhibitors (100 nM). The medium was changed every 24 hours with fresh osteopontin and the inhibitors. At 72 hr, the medium was removed, and the dentine surfaces were washed with water to remove cell debris and stained with acid hematoxylin. Excess stain was washed and the pit depths were quantitated using confocal microscopy.

[18] = 20 μM ATP, read-out: Delta IC50
[19] = stimulated T cell proliferation

T1 sequence (P48736 whole entry): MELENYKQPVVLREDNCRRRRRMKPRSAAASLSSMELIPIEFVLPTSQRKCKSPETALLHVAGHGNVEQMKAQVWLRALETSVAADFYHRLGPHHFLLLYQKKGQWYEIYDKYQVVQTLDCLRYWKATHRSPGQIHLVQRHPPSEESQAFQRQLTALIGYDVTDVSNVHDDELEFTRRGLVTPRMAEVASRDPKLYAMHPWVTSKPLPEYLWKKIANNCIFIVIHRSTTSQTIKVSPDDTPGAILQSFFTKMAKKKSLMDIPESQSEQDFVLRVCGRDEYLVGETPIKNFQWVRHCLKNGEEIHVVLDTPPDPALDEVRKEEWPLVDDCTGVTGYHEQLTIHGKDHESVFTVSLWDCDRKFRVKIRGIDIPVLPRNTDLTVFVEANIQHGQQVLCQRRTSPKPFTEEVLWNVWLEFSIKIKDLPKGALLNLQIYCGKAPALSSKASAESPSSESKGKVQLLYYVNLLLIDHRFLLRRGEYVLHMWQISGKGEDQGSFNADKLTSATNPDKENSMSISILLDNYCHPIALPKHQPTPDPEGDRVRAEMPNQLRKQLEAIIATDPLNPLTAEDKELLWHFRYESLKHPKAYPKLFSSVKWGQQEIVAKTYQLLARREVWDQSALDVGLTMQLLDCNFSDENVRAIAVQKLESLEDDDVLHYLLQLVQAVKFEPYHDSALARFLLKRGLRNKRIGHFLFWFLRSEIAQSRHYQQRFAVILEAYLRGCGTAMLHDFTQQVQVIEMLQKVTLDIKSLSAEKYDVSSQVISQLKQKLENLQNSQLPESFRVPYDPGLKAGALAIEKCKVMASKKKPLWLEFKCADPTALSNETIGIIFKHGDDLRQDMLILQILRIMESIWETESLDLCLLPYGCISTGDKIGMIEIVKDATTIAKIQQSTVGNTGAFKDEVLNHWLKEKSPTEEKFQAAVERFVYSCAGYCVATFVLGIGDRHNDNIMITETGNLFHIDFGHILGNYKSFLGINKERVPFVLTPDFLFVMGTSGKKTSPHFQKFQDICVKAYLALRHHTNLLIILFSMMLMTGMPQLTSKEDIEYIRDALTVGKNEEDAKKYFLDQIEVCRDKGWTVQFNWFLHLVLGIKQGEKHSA
T4 sequence (P42338 whole entry): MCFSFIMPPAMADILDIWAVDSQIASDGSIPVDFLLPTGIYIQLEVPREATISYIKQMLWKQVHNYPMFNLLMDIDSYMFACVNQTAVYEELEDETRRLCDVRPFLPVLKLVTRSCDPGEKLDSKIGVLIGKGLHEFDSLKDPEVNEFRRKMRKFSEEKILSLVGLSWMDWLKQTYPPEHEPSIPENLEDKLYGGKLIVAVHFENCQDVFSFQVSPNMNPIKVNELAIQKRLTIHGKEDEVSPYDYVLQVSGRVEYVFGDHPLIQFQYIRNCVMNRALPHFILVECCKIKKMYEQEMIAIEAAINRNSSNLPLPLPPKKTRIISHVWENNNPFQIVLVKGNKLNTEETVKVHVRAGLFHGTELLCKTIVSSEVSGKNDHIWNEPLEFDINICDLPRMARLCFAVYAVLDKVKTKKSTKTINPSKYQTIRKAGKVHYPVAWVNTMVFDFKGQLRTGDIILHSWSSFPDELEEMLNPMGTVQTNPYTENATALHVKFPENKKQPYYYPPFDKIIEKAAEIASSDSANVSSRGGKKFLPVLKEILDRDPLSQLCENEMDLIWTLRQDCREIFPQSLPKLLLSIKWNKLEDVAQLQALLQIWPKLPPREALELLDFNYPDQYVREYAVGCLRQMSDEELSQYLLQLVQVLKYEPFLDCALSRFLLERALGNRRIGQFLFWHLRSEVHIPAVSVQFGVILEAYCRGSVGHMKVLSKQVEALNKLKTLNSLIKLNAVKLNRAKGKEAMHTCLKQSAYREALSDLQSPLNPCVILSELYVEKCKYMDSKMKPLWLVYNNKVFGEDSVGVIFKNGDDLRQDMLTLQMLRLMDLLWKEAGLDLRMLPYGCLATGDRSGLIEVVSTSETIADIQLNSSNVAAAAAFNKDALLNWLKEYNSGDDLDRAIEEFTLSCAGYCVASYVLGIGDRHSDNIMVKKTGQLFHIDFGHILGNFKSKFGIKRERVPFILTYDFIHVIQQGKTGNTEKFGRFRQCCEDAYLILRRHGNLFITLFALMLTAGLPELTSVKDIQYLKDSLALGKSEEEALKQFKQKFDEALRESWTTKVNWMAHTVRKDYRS
T4 sequence (P27986 whole entry partner): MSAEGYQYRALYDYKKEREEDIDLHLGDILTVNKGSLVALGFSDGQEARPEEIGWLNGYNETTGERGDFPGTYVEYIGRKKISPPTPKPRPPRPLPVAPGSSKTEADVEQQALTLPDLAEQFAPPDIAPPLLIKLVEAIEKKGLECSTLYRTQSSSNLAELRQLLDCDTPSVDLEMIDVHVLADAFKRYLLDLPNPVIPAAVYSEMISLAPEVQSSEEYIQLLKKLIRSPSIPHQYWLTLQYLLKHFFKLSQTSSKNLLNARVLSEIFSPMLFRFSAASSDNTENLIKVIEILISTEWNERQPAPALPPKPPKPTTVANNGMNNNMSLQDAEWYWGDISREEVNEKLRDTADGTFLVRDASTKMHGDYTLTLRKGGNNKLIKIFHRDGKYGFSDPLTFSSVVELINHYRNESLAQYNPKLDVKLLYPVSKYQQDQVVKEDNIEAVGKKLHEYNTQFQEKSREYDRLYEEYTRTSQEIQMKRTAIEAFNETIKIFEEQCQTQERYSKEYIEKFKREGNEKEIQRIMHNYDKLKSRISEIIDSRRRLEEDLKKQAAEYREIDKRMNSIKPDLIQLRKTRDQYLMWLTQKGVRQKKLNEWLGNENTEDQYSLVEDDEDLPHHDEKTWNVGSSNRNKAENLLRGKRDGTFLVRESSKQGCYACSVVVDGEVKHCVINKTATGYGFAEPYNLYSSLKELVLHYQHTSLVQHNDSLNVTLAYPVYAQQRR
T2 sequence (O00329 whole entry S253N): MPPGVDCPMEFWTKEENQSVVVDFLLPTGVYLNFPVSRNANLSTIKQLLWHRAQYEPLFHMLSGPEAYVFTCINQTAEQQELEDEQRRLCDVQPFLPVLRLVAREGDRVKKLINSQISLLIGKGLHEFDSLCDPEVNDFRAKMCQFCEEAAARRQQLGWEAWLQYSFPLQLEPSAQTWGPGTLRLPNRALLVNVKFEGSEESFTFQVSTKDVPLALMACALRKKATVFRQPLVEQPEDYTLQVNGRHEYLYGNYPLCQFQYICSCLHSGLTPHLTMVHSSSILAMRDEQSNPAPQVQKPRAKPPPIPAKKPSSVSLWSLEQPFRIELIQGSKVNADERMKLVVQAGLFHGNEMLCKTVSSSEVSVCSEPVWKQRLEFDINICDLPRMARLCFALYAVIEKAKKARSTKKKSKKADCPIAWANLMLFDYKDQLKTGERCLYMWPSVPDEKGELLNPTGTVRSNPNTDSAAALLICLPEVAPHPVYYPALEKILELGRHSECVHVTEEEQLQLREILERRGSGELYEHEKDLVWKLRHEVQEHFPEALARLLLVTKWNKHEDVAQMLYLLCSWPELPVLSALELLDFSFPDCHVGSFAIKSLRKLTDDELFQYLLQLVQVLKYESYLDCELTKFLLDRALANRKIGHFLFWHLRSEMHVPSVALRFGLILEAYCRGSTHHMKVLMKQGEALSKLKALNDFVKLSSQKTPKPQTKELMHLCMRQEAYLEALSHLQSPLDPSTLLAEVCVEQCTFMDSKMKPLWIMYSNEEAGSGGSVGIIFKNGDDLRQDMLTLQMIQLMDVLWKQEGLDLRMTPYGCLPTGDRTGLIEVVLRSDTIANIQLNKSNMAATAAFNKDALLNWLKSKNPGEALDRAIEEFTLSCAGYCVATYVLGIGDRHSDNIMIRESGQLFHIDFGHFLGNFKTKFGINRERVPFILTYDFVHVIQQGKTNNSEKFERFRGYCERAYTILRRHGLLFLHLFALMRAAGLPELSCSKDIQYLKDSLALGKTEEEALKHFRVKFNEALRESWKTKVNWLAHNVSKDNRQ
T2 sequence (P27986 whole entry partner): as the sequence (P27986 whole entry partner) above
T3 sequence (P42336 whole entry): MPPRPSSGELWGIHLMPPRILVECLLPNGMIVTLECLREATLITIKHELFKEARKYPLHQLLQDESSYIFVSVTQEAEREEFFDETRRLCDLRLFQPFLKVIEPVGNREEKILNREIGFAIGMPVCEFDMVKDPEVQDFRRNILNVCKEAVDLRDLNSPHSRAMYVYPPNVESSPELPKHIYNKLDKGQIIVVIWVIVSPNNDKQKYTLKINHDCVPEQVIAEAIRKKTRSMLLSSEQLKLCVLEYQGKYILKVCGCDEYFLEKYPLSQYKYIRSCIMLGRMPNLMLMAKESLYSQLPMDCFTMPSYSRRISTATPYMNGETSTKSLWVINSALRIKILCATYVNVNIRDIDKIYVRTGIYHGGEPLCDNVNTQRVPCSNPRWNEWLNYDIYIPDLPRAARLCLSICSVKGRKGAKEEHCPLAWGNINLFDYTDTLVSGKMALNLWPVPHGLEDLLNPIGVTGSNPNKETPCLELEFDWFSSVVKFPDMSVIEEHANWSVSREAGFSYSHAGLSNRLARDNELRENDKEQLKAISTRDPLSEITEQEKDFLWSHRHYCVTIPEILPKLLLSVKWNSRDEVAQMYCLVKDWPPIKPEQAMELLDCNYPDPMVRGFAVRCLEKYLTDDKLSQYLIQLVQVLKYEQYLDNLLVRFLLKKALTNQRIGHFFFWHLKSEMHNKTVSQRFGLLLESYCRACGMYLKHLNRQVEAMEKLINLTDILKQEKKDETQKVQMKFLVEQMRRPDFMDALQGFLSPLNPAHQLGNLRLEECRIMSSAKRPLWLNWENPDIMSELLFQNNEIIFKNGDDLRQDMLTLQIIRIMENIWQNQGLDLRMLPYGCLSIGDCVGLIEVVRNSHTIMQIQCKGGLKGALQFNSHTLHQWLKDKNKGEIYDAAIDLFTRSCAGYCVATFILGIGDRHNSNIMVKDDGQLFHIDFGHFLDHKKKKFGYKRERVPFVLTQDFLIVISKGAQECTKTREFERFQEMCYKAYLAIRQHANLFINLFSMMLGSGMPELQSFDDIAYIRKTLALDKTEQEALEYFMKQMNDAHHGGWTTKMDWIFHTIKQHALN
T3 sequence (P27986 whole entry partner): as the sequence (P27986 whole entry partner) above

| Compound | IC50 [2] [nM] | EC50 [3] [nM] | EC50 [4] [nM] | EC50 [5] [nM] | IC50 [8] [nM] | IC50 [9, 18] [nM] | Alpha/Delta Ratio ([10]; 20 μM ATP) | Beta/Delta Ratio [11] | Alpha/Delta Ratio [12] | Beta/Delta Ratio [13] | Gamma/Delta Ratio [2] | EC50 [6, 19] [nM] | also measured |
| --- | --- | --- | --- | --- | --- | --- | --- | --- | --- | --- | --- | --- | --- |
| Cc1cccc2nc(CSc3ncnc4[nH]cnc34)n(-c3ccccc3Cl)c(=O)c12 [Compound D-026, 3-(2-Chlorophenyl)-5-methyl-2-(9H-purin-6-ylsulfanylmethyl)-3H-quinazolin-4-one] | 13000 ± 10000 | 200 ± 200 | 300 ± 300 | 300 ± 100 | 380 ± 200 | 80 |  |  |  |  |  |  | IC50 [1]: 1700 nM; EC50 ([6]; T-cell): 3500 nM; EC50 ([7]; Homo sapiens, read-out: EC50, suppression of histamine release): ~25 nM; Suppression of histamine release ([7]; anti-IgE, at 1,000 nM): ~100%; Effect on histamine release, basophils stimulated with fMLP ([7]; fMLP stimulus): Neither compound elicited any effect; melting point: 227.8 to 230.1 °C (dec.) |
| Cc1cccc2nc(Cn3cnc4c(N)ncnc43)n(-c3ccccc3C(C)C)c(=O)c12 [Compound D-029, 2-(6-Aminopurin-9-ylmethyl)-3-(2-isopropylphenyl)-5-methyl-3H-quinazolin-4-one] | 13000 ± 700 | 500 ± 600 | 300 | 100 ± 30 | 340 ± 80 | 60 | 882 | 54 | 653 | 101 | 37 | 3400 ± 2000 | IC50 ([10]; 20 μM ATP, read-out: Alpha IC50): 49000 nM; IC50 [11]: 3000 nM; IC50 [13]: 34000 ± 4000 nM; melting point: 258 to 258.2 °C |
| Cc1ccccc1-n1c(Cn2cnc3c(N)ncnc32)nc2cccc(C)c2c1=O [Compound D-030, 2-(6-Aminopurin-9-ylmethyl)-5-methyl-3-o-tolyl-3H-quinazolin-4-one] |  | 400 ± 500 | 200 | 100 ± 100 |  |  |  |  |  |  |  | 6000 | Reduction in eosinophils count in lavage fluid [14]: 66%; Reduction in lymphocytes count in lavage fluid [14]: 70%; Reduction in neutrophils count in lavage fluid [14]: 90%; Reduction in total leukocytes in the lavage fluid compared to vehicle controls [14]: 82%; Reduction of neutrophil elastase levels versus vehicle controls [14]: 15%; concentration at 12 h [15]: 8.7 µM; Elastase activity in the air pouch lavages of TNF challenged animals [16]: significant decrease |
| COc1ccccc1-n1c(CSc2ncnc3[nH]cnc23)nc2ccccc2c1=O [Compound D-036, 3-(2-methoxyphenyl)-2-(9H-purin-6-ylsulfanylmethyl)-3H-quinazolin-4-one] | 72000 | 5500 ± 5000 | 200 | 900 ± 40 | 4100 |  | >226 | 69 | 48 | 36 | 18 | 4100 | remaining activity at 100 µM [10]: 63% |
| O=c1c2ccccc2nc(CSc2ncnc3[nH]cnc23)n1Cc1ccccc1 [Compound D-037, 3-benzyl-2-(9H-purin-6-ylsulfanylmethyl)-3H-quinazolin-4-one] | 45000 | 1300 ± 400 | 2000 | 1200 ± 400 | 3500 | 800 | >125 | 100 | 64 | 33 | 13 |  | remaining activity at 100 µM [10]: 64%; IC50 [11]: 80000 nM |
| O=c1cc(N2CCOCC2)oc2c(-c3ccccc3)cccc12 [LY294002, reference compound] |  |  |  | 900 ± 500 | 2100 ± 1500 | 230 |  |  |  |  |  |  | Pit depths (osteoclast activity), Table 1 [17]: 4.6 ± 0.22 and 5.8 ± 0.5; inhibition at 10 µM ([7]; Homo sapiens, at the highest concentration, 10,000 nM): ~100%; IC50 ([9]; Example 2 assay conditions, read-out: IC50, δ isoform of PI3K (FIG. 1)): 300 to 1000 nM |
| COC[C@H]1OC(=O)c2coc3c2[C@@]1(C)C1=C(C3=O)[C@@H]2CCC(=O)[C@@]2(C)C[C@H]1OC(C)=O [Wortmannin, wortmannin] |  |  |  |  |  |  |  |  |  |  |  |  | Pit depths (osteoclast activity), Table 1 [17]: 5.7 ± 0.6 and 5 ± 0.5 |
